In US4883807A, “1,2,5,6-tetrahydropyridyl triazoles and tetrazoles useful as fungicides” (Imperial Chemical Industries PLC, priority 1986, dated 1989):

Legend:
Venturia inaequalis = assay: foliar fungal disease control on plants, Venturia inaequalis on apple; format: in vivo; details: 100 ppm foliar spray plus root drench ca. 40 ppm a.i./dry soil, one or two days before inoculation
Description: (§1) The technique employed was as follows.
(§2) The plants were grown in John Innes Potting Compost (No. 1 or 2) in 4 cm diameter minipots. The test compounds were formulated either by bead milling with aqueous Dispersol T or as a solution in acetone or acetone/ethanol which was diluted to the required concentration immediately before use. For the foliage diseases, the formulations (100 ppm active ingredient) were sprayed on to the foliage and applied to the roots of the plants in the soil. The sprays were applied to maximum retention and the root drenches to a final concentration equivalent to approximately 40 ppm a.i./dry soil. Tween 20, to give a final concentration of 0.05%, was added when the sprays were applied to cereals.
(§3) For most of the tests the compound was applied to the soil (roots) and to the foliage (by spraying) one or two days before the plant was inoculated with the disease. An exception was the test on Erysiphe graminis in which the plants were inoculated 24 hours before treatment. Foliar pathogens were applied by spray as spore suspensions onto the leaves of test plants. After inoculation, the plants were put into an appropriate environment to allow infection to proceed and then incubated until the disease was ready for assessment. The period between inoculation and assessment varied from four to fourteen days according to the disease and environment.
(§4) The disease control was recorded by the following grading: […]

Puccinia recondita = assay: foliar fungal disease control on plants, Puccinia recondita on wheat; format: in vivo; details: 100 ppm foliar spray plus root drench ca. 40 ppm a.i./dry soil, one or two days before inoculation
Description: as §1, §2, §3, §4

Pyricularia oryzae = format: in vivo; details: 100 ppm foliar spray plus root drench ca. 40 ppm a.i./dry soil, one or two days before inoculation
Phytophthora infestans = format: in vivo; details: 100 ppm foliar spray plus root drench ca. 40 ppm a.i./dry soil, one or two days before inoculation
Cercospora arachidicola = assay: foliar fungal disease control on plants, Cercospora arachidicola on peanut; format: in vivo; details: 100 ppm foliar spray plus root drench ca. 40 ppm a.i./dry soil, one or two days before inoculation
Description: as §1, §2, §3, §4

Erysiphe graminis = assay: foliar fungal disease control on plants, Erysiphe graminis on barley; format: in vivo; details: 100 ppm foliar spray plus root drench ca. 40 ppm a.i./dry soil; inoculated 24 hours before treatment
Description: as §1, §2, §3, §4

Plasmopara viticola = assay: foliar fungal disease control on plants, Plasmopara viticola on vine; format: in vivo; details: 100 ppm foliar spray plus root drench ca. 40 ppm a.i./dry soil, one or two days before inoculation
Description: as §1, §2, §3, §4

[1] = test system: Tetranyhus urticae (spider mites - ova); assay: whole plant or invertebrate; details: 144 h, read-out: grading of mortality, TUe
Spodoptera exigua = assay: whole plant or invertebrate; details: in Gossypium hirsutum, 72 h, read-out: grading of mortality, SP
Meloidogyne incognita = assay: nematode test, tomato root knot eelworm - larvae, semi in-vitro; format: in vivo; details: 250 ppm, residual, 7 days
Description: (§5) The activity of the compounds was determined using a variety of insect, mite and nematode pests. The compounds were used in the form of liquid preparations containing 500 parts per million (ppm) by weight of the compound except for the test on Meloidogyne incognita when liquid preparations of 250 ppm by weight were used. The preparations were made by dissolving the compounds in acetone and diluting the solutions with water containing 0.1% by weight of a wetting agent sold under the trade name "SYNPERONIC" NX until the liquid preparations contained the required concentration of the product. "SYNPERONIC" is a Registered Trade Mark.
(§6) The test procedure adopted with regard to each pest was basically the same and comprised supporting a number of the pests on a medium which was usually a host plant or a foodstuff on which the pests feed, and treating either or both the pests and the medium with the preparations. The mortality of the pests was then assessed at periods usually varying from one to seven days after the treatment.
(§7) The results of the tests are given in Table IX for each of the products as a grading of mortality designated as 9, 5 or 0 where 9 indicates 80-100% mortality (70-100% root-knot reduction as compared with untreated plants for Meloidogyne incognita), 5 indicates 50-79% mortality (50-69% root knot reduction for Meloidogyne incognita) and 0 indicates less than 50% mortality (root-knot reduction for Meloidogyne incognita).
(§8) In Table IX the pest organism used in designated by a letter code and the pests species, the support medium or food, and the type and duration of test is given in Table VII.

Myzus persicae = assay: whole plant or invertebrate; details: in Brassica rapa, 72 h, read-out: grading of mortality, MP
Nilaparvata lugens = assay: whole plant or invertebrate; details: in Oryza sativa, 72 h, read-out: grading of mortality, NL
Diabrotica balteata = assay: whole plant or invertebrate; details: in Zea mays, 72 h, read-out: grading of mortality, DB
Heliothis virescens = assay: insecticidal test, tobacco budworm - larvae; format: in vivo; details: in Gossypium hirsutum, 72 h, read-out: grading of mortality, HV
Description: as §5, §6, §7, §8

Musca domestica [2] = assay: whole plant or invertebrate; details: 24 h, read-out: grading of mortality, MD
Blattella germanica = assay: whole plant or invertebrate; details: 72 h, read-out: grading of mortality, BG
[3] = test system: Tetranychus urticae (spider mites - adult); assay: whole plant or invertebrate; details: in Phaseolus vulgaris, 72 h, read-out: grading of mortality, TUa
Musca domestica [4] = assay: knockdown properties against houseflies; format: in vivo; details: 2000 ppm solution (1 ml) sprayed directly
Description: A sample of compound 3 was diluted in 2 mls acetone and made upto a 2000 ppm solution with 0.1% aqueous synperonic solution. The solution (1 ml) was then sprayed directly onto twenty mixed sex houseflies held in a drinking cup. Immediately after spraying the cups were inverted and left to dry. An assessment of knockdown was made when the cups were righted 15 minutes later. The flies were then provided with a 10% sucrose solution on a cotton wool pad, and held for 48 hours in a holding room conditioned at 25° C. and 65% relative humidity before a mortality assessment was made.

| SMILES | disease control grading, VENTURIA INAEQUALIS (Apple) (Venturia inaequalis) | disease control grading, PUCCINIA RECONDITA (Wheat) (Puccinia recondita) | disease control grading, P[…] (Rice) (Pyricularia oryzae) | disease control grading, PH[…] (TOMATOES) (Phytophthora infestans) | disease control grading, CERCOSPCRA ARACHIDICOLA (Peanut) (Cercospora arachidicola) | disease control grading, ERYSIPHE GRAMINIS (Barley) (Erysiphe graminis) | disease control grading, […] (Vine) (Plasmopara viticola) | mortality at 500 ppm [1] [%] | mortality at 500 ppm (Spodoptera exigua) [%] | grading of root-knot reduction, MI (Meloidogyne incognita) | mortality at 500 ppm (Myzus persicae) [%] | mortality at 500 ppm (Nilaparvata lugens) [%] | mortality at 500 ppm (Diabrotica balteata) [%] | mortality at 500 ppm (Heliothis virescens) [%] | mortality at 500 ppm (Musca domestica [2]) [%] | mortality at 500 ppm (Blattella germanica) [%] | mortality at 500 ppm [3] [%] | knockdown (Musca domestica [4]; 15 minutes) [%] | kill (Musca domestica [4]; 48 hours, 25° C., 65% relative humidity) [%] |
| --- | --- | --- | --- | --- | --- | --- | --- | --- | --- | --- | --- | --- | --- | --- | --- | --- | --- | --- | --- |
| C=CCO/N=C\c1cccn1/C(=C\OC)C(=O)OC [Compound 4 of Table I] | 4 | 4 | 4 | 4 | 4 | 4 | 4 | – | – | – | – | – | – | – | – | – | – | – | – |
| CCOC(=O)/C(C#N)=C/c1cccn1/C(=C\OC)C(=O)OC [Compound 19 of Table I] | 0 (60-100% of disease on untreated plants) | 4 | 0 (60-100% of disease on untreated plants) | 0 (60-100% of disease on untreated plants) | 3 (trace - 5% of disease on untreated plants) | 0 (60-100% of disease on untreated plants) | 4 | – | – | – | – | – | – | – | – | – | – | – | – |
| CO/C=C(/C(=O)OC)n1cccc1CN1CCOCC1 [Compound 5 of Table II] | 4 | 2 (6-25% of disease on untreated plants) | 0 (60-100% of disease on untreated plants) | 0 (60-100% of disease on untreated plants) | 4 | 2 (6-25% of disease on untreated plants) | 0 (60-100% of disease on untreated plants) | – | – | – | – | – | – | – | – | – | – | – | – |
| CO/C=C(/C(=O)OC)n1cccc1/C=N\OC [Compound 2 of Table I] | 4 | 4 | 3 (trace - 5% of disease on untreated plants) | 0 (60-100% of disease on untreated plants) | 4 | 4 | 4 | < 50 | < 50 | 0 (less than 50% mortality (root-knot reduction for Meloidogyne incognita)) | 80 to 100 | < 50 | 50 to 79 | < 50 | < 50 | < 50 | 80 to 100 | – | – |
| C=CCO/N=C/c1cccn1/C(=C\OC)C(=O)OC [Compound 3 of Table I] | 4 | 4 | – | 0 (60-100% of disease on untreated plants) | 4 | 4 | 4 | < 50 | < 50 | 5 (50-69% root knot reduction for Meloidogyne incognita) | < 50 | 80 to 100 | 80 to 100 | < 50 | 80 to 100 | 80 to 100 | 80 to 100 | 90 | 93 |
